Data set [1] relates to plasmid nucleic acid pRSVLuc. As to the kind of experiment: Surface plasmon resonance (BIAcore) binding kinetics of peptides/conjugates to immobilized biotinylated plasmid DNA. Particulars: apparent rate constant for dissociation; SPR, PBS, 25° C.
For data set [2] the following is noted: without salt at >20 μg/ml.

Experimental findings from patent publication US6218112A, “Optimization of gene delivery and gene delivery system” (Cobra Therapeutics Limited, priority 1997, dated 2001) are described below.

* marks the point of attachment. Acm = CC(=O)NC*

In the case of “NH2-KPKAAKPKKPKKKRKVEKKSPKKAKKPAAC(Acm)-COOH (H-KPKAAKPKKPKKKRKVEKKSPKKAKKPAAC(Acm)-OH; SMILES CC(=O)NCSC[C@H](NC(=O)[C@H](C)NC(=O)[C@H](C)NC(=O)[C@@H]1CCCN1C(=O)[C@H](CCCCN)NC(=O)[C@H](CCCCN)NC(=O)[C@H](C)NC(=O)[C@H](CCCCN)NC(=O)[C@H](CCCCN)NC(=O)[C@@H]1CCCN1C(=O)[C@H](CO)NC(=O)[C@H](CCCCN)NC(=O)[C@H](CCCCN)NC(=O)[C@H](CCC(=O)O)NC(=O)[C@@H](NC(=O)[C@H](CCCCN)NC(=O)[C@H](CCCNC(=N)N)NC(=O)[C@H](CCCCN)NC(=O)[C@H](CCCCN)NC(=O)[C@H](CCCCN)NC(=O)[C@@H]1CCCN1C(=O)[C@H](CCCCN)NC(=O)[C@H](CCCCN)NC(=O)[C@@H]1CCCN1C(=O)[C@H](CCCCN)NC(=O)[C@H](C)NC(=O)[C@H](C)NC(=O)[C@H](CCCCN)NC(=O)[C@@H]1CCCN1C(=O)[C@@H](N)CCCCN)C(C)C)C(=O)O) [NBC2]”, in data set [1], the kd is 0.00938 s⁻¹. The solubility of complexes result in data set [2] is “insoluble”.
